pIC50: −log10 of the molar value. Where only a bound is given, the exact number is not on record here.

We go through 21 molecules from patent US8163766B2, “Beta-secretase modulators and methods of use” (Amgen Inc., priority 2005, dated 2012).

This assay relates to Aβ 40 in conditioned media of cells stably expressing Amyloid Precursor Protein (APP). Kind of assay: BACE Cell-Based Assay (Aβ40 in conditioned medium, sandwich ELISA). The following applies: 24 hours of incubation with the test compounds, Aβ 40 by sandwich ELISA, read-out: IC50 values in the cell-based assay (inhibition of Aβ 40). Summed up:
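APP-stably-expressing cells in DMEM/10% FBS exposed 24 h to 10-point compound dilutions starting at 100 or 10 μM, 0.1% DMSO final. Aβ40 in conditioned medium measured by sandwich ELISA (pAb40 capture, biotinylated 6E10 detection, Eu time-resolved fluorescence); IC50 from percent inhibition versus concentration.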
Turning to `O=C(N[C@@H](Cc1ccc(F)cc1)[C@H](O)CN[C@H]1CC2(CCC2)Oc2cc(F)c(-n3cccn3)cc21)C1CC1` [Example 472, N-((1S,2R)-1-((4-fluorophenyl)methyl)-3-(((4S)-7-fluoro-6-(1H-pyrazol-1-yl)-3,4-dihydrospiro[chromene-2,1′-cyclobutan]-4-yl)amino)-2-hydroxypropyl)cyclopropanecarboxamide], the pIC50 is at least 5.30. `O=C(N[C@@H](Cc1ccc(F)cc1)[C@H](O)CN[C@H]1CC2(CCC2)Oc2cc(F)c(-n3cccn3)cc21)C1CCC1` [Example 473, N-((1S,2R)-1-((4-fluorophenyl)methyl)-3-(((4S)-7-fluoro-6-(1H-pyrazol-1-yl)-3,4-dihydrospiro[chromene-2,1′-cyclobutan]-4-yl)amino)-2-hydroxypropyl)cyclobutanecarboxamide]: the pIC50 is at least 5.30. In the case of `CCc1ccc2c(c1)[C@@H](NCC(=O)[C@H](Cc1ccccc1)NC(=O)[C@@H]1CN(C(=O)N3CCCCC3)CCO1)CC(C)(C)O2` [Example 475, (2S)-N-((1S)-3-(((4S)-6-ethyl-2,2-dimethyl-3,4-dihydro-2H-chromen-4-yl)amino)-2-oxo-1-(phenylmethyl)propyl)-4-(1-piperidinylcarbonyl)-2-morpholinecarboxamide], the pIC50 was at least 5.30. With `O=C(N[C@@H](Cc1ccccc1)[C@H](O)CN[C@H]1CC2(CCC2)Oc2ccccc21)c1cc(-c2ccccn2)c(=O)n(C2CCCC2)c1` [Example 476, 1′-cyclopentyl-N-((1S,2R)-3-((4S)-3,4-dihydrospiro[chromene-2,1′-cyclobutan]-4-ylamino)-2-hydroxy-1-(phenylmethyl)propyl)-2′-oxo-1′,2′-dihydro-2,3′-bipyridine-5′-carboxamide], the pIC50 is at least 5.30. `CC#CC[C@H](NC(=O)c1cc(-c2ccccn2)c(=O)n(C2CCCC2)c1)[C@H](O)CN[C@H]1CC2(CCC2)Oc2ccc(CC)cc21` [Example 477, 1′-cyclopentyl-N-((1S)-1-((1R)-2-(((4S)-6-ethyl-3,4-dihydrospiro[chromene-2,1′-cyclobutan]-4-yl)amino)-1-hydroxyethyl)-3-pentyn-1-yl)-2′-oxo-1′,2′-dihydro-2,3′-bipyridine-5′-carboxamide]: the pIC50 was at least 5.30. Turning to `C[C@@H](N[C@H]1CC(C)(C)Oc2ccc(Br)cc21)[C@H](O)[C@H](Cc1ccccc1)NC(=O)c1cc(-c2ccccn2)c(=O)n(C2CCCC2)c1` [Example 480, N-((1S,2S,3R)-3-(((4S)-6-bromo-2,2-dimethyl-3,4-dihydro-2H-chromen-4-yl)amino)-2-hydroxy-1-(phenylmethyl)butyl)-1′-cyclopentyl-2′-oxo-1′,2′-dihydro-2,3′-bipyridine-5′-carboxamide], the pIC50 is at least 5.30. For the molecule `CC1(C)C[C@@H](NC[C@@H](O)[C@H](Cc2ccccc2)NC(=O)c2cc(-c3ccccn3)c(=O)n(C3CCCC3)c2)c2cc(Br)ccc2N1` [Example 481, N-((1S,2R)-3-(((4R)-6-bromo-2,2-dimethyl-1,2,3,4-tetrahydro-4-quinolinyl)amino)-2-hydroxy-1-(phenylmethyl)propyl)-1′-cyclopentyl-2′-oxo-1′,2′-dihydro-2,3′-bipyridine-5′-carboxamide], the pIC50 was at least 5.30. Next, `CC1(C)C[C@H](NC[C@@H](O)[C@H](Cc2ccccc2)NC(=O)c2cc(-c3ccccn3)c(=O)n(C3CCCC3)c2)c2cc(Br)ccc2N1` [Example 482, N-((1S,2R)-3-(((4S)-6-bromo-2,2-dimethyl-1,2,3,4-tetrahydro-4-quinolinyl)amino)-2-hydroxy-1-(phenylmethyl)propyl)-1′-cyclopentyl-2′-oxo-1′,2′-dihydro-2,3′-bipyridine-5′-carboxamide]: at least 5.30; `CCCOC[C@H](NC(=O)c1cc(-c2ccccn2)c(=O)n(C2CCCC2)c1)[C@H](O)CN[C@H]1CC2(CCC2)Oc2ccc(CC)cc21` [Example 483, 1′-cyclopentyl-N-((1S,2R)-3-(((4S)-6-ethyl-3,4-dihydrospiro[chromene-2,1′-cyclobutan]-4-yl)amino)-2-hydroxy-1-((propyloxy)methyl)propyl)-2′-oxo-1′,2′-dihydro-2,3′-bipyridine-5′-carboxamide]: at least 5.30. Next, `CCc1ccc2c(c1)[C@@H](NC[C@@H](O)[C@H](Cc1ccccc1)NC(=O)[C@H]1CN(C(=O)N3CCCCC3)CCO1)CC(C)(C)O2` [Example 484, (2R)-N-((1S,2R)-3-(((4S)-6-ethyl-2,2-dimethyl-3,4-dihydro-2H-chromen-4-yl)amino)-2-hydroxy-1-(phenylmethyl)propyl)-4-(1-piperidinylcarbonyl)-2-morpholinecarboxamide]: at least 5.30; `CCc1ccc2c(c1)[C@@H](NC[C@@H](O)[C@H](Cc1ccccc1)NC(=O)[C@@H]1CN(C(=O)N3CCCCC3)CCO1)CC(C)(C)O2` [Example 485, (2S)-N-((1S,2R)-3-(((4S)-6-ethyl-2,2-dimethyl-3,4-dihydro-2H-chromen-4-yl)amino)-2-hydroxy-1-(phenylmethyl)propyl)-4-(1-piperidinylcarbonyl)-2-morpholinecarboxamide]: at least 5.30; `CC(C)(C)Cc1ccc2c(c1)[C@H](NC[C@@H](O)[C@H](Cc1ccccc1)NC(=O)c1cc(-c3ccccn3)c(=O)n(C3CCCC3)c1)CC(C)(C)N2` [Example 488, 1′-cyclopentyl-N-((1S,2R)-3-(((4R)-6-(2,2-dimethylpropyl)-2,2-dimethyl-1,2,3,4-tetrahydro-4-quinolinyl)amino)-2-hydroxy-1-(phenylmethyl)propyl)-2′-oxo-1′,2′-dihydro-2,3′-bipyridine-5′-carboxamide]: at least 5.30. On to `CC(C)(C)Cc1ccc2c(c1)[C@@H](NC[C@@H](O)[C@H](Cc1ccccc1)NC(=O)c1cc(-c3ccccn3)c(=O)n(C3CCCC3)c1)CC(C)(C)N2` [Example 489, 1′-cyclopentyl-N-((1S,2R)-3-(((4S)-6-(2,2-dimethylpropyl)-2,2-dimethyl-1,2,3,4-tetrahydro-4-quinolinyl)amino)-2-hydroxy-1-(phenylmethyl)propyl)-2′-oxo-1′,2′-dihydro-2,3′-bipyridine-5′-carboxamide], for which the negative logarithm of the IC50 (pIC50) was at least 5.30.

`Cc1cccc(C(=O)N2CCO[C@H](C(=O)N[C@@H](Cc3cccc(C#N)c3)[C@H](O)CN[C@H]3CC4(CCC4)Cc4ncc(C)cc43)C2)c1` [Example 490, (2S)-N-((1S,2R)-1-((3-cyanophenyl)methyl)-2-hydroxy-3-(((5′S)-3′-methyl-5′,8′-dihydro-6′H-spiro[cyclobutane-1,7′-quinolin]-5′-yl)amino)propyl)-4-((3-methylphenyl)carbonyl)-2-morpholinecarboxamide]: the negative-log IC50 (pIC50) is at least 5.30. Next, `Cc1cccc(C(=O)N2CCO[C@@H](C(=O)N[C@@H](Cc3cccc(C#N)c3)[C@H](O)CN[C@H]3CC4(CCC4)Cc4ncc(C)cc43)C2)c1` [Example 491, (2R)-N-((1S,2R)-1-((3-cyanophenyl)methyl)-2-hydroxy-3-(((5′S)-3′-methyl-5′,8′-dihydro-6′H-spiro[cyclobutane-1,7′-quinolin]-5′-yl)amino)propyl)-4-((3-methylphenyl)carbonyl)-2-morpholinecarboxamide]: at least 5.30; `Cc1cccc(C(=O)N2CCO[C@H](C(=O)N[C@@H](Cc3cc(F)cc(F)c3)[C@H](O)CN[C@H]3CC4(CCC4)Cc4ncc(C)cc43)C2)c1` [Example 492, (2S)-N-((1S,2R)-1-((3,5-difluorophenyl)methyl)-2-hydroxy-3-(((5′S)-3′-methyl-5′,8′-dihydro-6′H-spiro[cyclobutane-1,7′-quinolin]-5′-yl)amino)propyl)-4-((3-methylphenyl)carbonyl)-2-morpholinecarboxamide]: at least 5.30. In the case of `Cc1cccc(C(=O)N2CCO[C@@H](C(=O)N[C@@H](Cc3cc(F)cc(F)c3)[C@H](O)CN[C@H]3CC4(CCC4)Cc4ncc(C)cc43)C2)c1` [Example 493, (2R)-N-((1S,2R)-1-((3,5-difluorophenyl)methyl)-2-hydroxy-3-(((5′S)-3′-methyl-5′,8′-dihydro-6′H-spiro[cyclobutane-1,7′-quinolin]-5′-yl)amino)propyl)-4-((3-methylphenyl)carbonyl)-2-morpholinecarboxamide], the pIC50 is at least 5.30. Next, `Cc1cccc(C(=O)N2CCO[C@H](C(=O)N[C@@H](Cc3ccccc3)[C@H](O)CN[C@H]3CC4(CCC4)Cc4ncc(C)cc43)C2)c1` [Example 494, (2S)-N-((1S,2R)-2-hydroxy-3-(((5′S)-3′-methyl-5′,8′-dihydro-6′H-spiro[cyclobutane-1,7′-quinolin]-5′-yl)amino)-1-(phenylmethyl)propyl)-4-((3-methylphenyl)carbonyl)-2-morpholinecarboxamide]: at least 5.30; `Cc1cccc(C(=O)N2CCO[C@@H](C(=O)N[C@@H](Cc3ccccc3)[C@H](O)CN[C@H]3CC4(CCC4)Cc4ncc(C)cc43)C2)c1` [Example 495, (2R)-N-((1S,2R)-2-hydroxy-3-(((5′S)-3′-methyl-5′,8′-dihydro-6′H-spiro[cyclobutane-1,7′-quinolin]-5′-yl)amino)-1-(phenylmethyl)propyl)-4-((3-methylphenyl)carbonyl)-2-morpholinecarboxamide]: at least 5.30; `Cc1cccc(C(=O)N2CCO[C@H](C(=O)N[C@@H](Cc3cccc(C#N)c3)[C@H](O)CN[C@H]3CC(C)(C)Cc4ncc(C)cc43)C2)c1` [Example 496, (2S)-N-((1S,2R)-1-((3-cyanophenyl)methyl)-2-hydroxy-3-(((5S)-3,7,7-trimethyl-5,6,7,8-tetrahydro-5-quinolinyl)amino)propyl)-4-((3-methylphenyl)carbonyl)-2-morpholinecarboxamide]: at least 5.30. Next, `Cc1cccc(C(=O)N2CCO[C@@H](C(=O)N[C@@H](Cc3cccc(C#N)c3)[C@H](O)CN[C@H]3CC(C)(C)Cc4ncc(C)cc43)C2)c1` [Example 497, (2R)-N-((1S,2R)-1-((3-cyanophenyl)methyl)-2-hydroxy-3-(((5S)-3,7,7-trimethyl-5,6,7,8-tetrahydro-5-quinolinyl)amino)propyl)-4-((3-methylphenyl)carbonyl)-2-morpholinecarboxamide]: at least 5.30.
